This note sets out measurements from ChEMBL document CHEMBL4359935, “Selective toxicity of chrysin on mitochondria isolated from liver of a HCC rat model” (Bioorg Med Chem, 2019).

In data set [1] the test system is Hepatocyte. The data set is described as follows: Induction of apoptosis in isolated HCC model Sprague-Dawley rat hepatocytes assessed as increase in cytochrome C release at 20 uM by ELISA relative to control. It is filed as functional. (An ELISA detects its analyte on a solid surface through an enzyme-linked reagent.)
The nature of data set [2]: Induction of mitochondrial swelling in Sprague-Dawley rat hepatocyte at 10 to 40 uM. The conditions noted are these: hepatocytes.
Data set [3] concerns Hepatocyte. Description: Induction of apoptosis in isolated HCC model Sprague-Dawley rat hepatocytes assessed as increase in cytochrome C release at 20 uM in presence of BHT by ELISA. The format is functional, cell-based.
Data set [4] in a line: Induction of mitochondrial membrane potential disruption in Sprague-Dawley rat hepatocyte assessed as collapsed mitochondrial membrane potential at 10 to 40 uM incubated upto 60 mins by Rhodamine 123 probe based fluorescence spectrophotometry. The conditions noted are these: hepatocytes, 1 h.
Data set [5] is filed under the species Rattus norvegicus. The data set is described as follows: Induction of mitochondrial swelling in HCC model Sprague-Dawley rat hepatocyte at 10 to 40 uM. The format is functional.
In data set [6] the test system is Hepatocyte. The data set is described as follows: Induction of apoptosis in isolated HCC model Sprague-Dawley rat hepatocytes assessed as increase in cytochrome C release at 20 uM in presence of CsA by ELISA. The format is functional, cell-based.
Data set [7] is described as follows: Induction of ROS production in Sprague-Dawley rat hepatocyte mitochondria at 10 to 40 uM incubated upto 60 mins by DCFH probe based fluorescence spectrophotometry. The conditions noted are these: hepatocytes, 1 h.
Data set [8] has as its system Hepatocyte. Description: Induction of apoptosis in isolated HCC model Sprague-Dawley rat hepatocytes assessed as increase in caspase 3 activity at 12 uM relative to control. The format is functional.
The target of data set [9] is Succinate dehydrogenase [ubiquinone] flavoprotein subunit, mitochondrial (Rattus norvegicus) (UniProt Q920L2). The data set is described as follows: Inhibition of SDH in HCC model Sprague-Dawley rat hepatocyte mitochondria at 10 to 40 uM incubated for 40 mins by MTT assay.
Data set [10] in a line: Effect on SDH activity in Sprague-Dawley rat hepatocyte mitochondria at 10 to 40 uM incubated for 40 mins by MTT assay. The format is ADME. The conditions noted are these: hepatocytes.
The species entered for data set [11] is Rattus norvegicus. Description: Induction of ROS production in HCC model Sprague-Dawley rat hepatocyte mitochondria at 10 to 40 uM incubated upto 60 mins by DCFH probe based fluorescence spectrophotometer. The format is functional.
Data set [12] is filed under the species Rattus norvegicus. Description: Induction of mitochondrial membrane potential disruption in HCC model Sprague-Dawley rat hepatocyte assessed as collapsed mitochondrial membrane potential at 10 to 40 uM incubated upto 60 mins by Rhodamine 123 probe based fluorescence spectrophotometry. It is filed as functional.

Activity calls are given as the source filed them. The calls are words filed in the database; no cut-off is given here.

Succinate dehydrogenase [ubiquinone] flavoprotein subunit, mitochondrial (Rattus norvegicus), sequence (Q920L2 whole entry): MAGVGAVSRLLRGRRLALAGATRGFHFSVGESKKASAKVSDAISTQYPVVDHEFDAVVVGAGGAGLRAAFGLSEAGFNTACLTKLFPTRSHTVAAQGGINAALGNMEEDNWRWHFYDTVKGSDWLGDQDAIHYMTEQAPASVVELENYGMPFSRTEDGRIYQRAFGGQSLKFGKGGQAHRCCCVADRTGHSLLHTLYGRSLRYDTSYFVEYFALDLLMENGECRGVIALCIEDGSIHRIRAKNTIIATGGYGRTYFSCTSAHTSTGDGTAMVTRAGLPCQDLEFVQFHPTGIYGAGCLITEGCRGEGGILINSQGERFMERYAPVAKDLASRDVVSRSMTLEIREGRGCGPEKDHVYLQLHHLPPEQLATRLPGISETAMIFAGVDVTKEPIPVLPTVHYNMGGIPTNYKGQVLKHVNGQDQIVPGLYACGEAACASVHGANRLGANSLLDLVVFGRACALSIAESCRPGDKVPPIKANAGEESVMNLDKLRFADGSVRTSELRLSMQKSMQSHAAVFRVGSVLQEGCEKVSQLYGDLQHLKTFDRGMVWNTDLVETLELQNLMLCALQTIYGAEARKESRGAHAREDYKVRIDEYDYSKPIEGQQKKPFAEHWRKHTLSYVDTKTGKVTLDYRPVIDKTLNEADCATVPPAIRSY

`O=c1cc(-c2ccccc2)oc2cc(O)cc(O)c12` [CHRYSIN]: the entries for the “fold change (FC)” value with Hepatocyte [1] and with Hepatocyte [8] were 1.6 and 2.4, respectively. Also, the Activity entry in [2], in data set [4], in [7] and in data set [10] was “Non-Toxic” throughout. Further, the outcome with Hepatocyte [3] and in the data set with Hepatocyte [6] was inactive. In addition, the result in the data set listed under Rattus norvegicus [5], in the data set filed under Rattus norvegicus [11] and in the data set listed under Rattus norvegicus [12] was Active. Moreover, in data set [9], the inhibition entry was “Active”.
